What was measured:
[1] = Paclitaxel administration, body weight; type: in vivo, mouse; conditions: 30 mg/kg intravenously via tail vein, 3 times a week for 2 weeks; WT and BACE1 KO mice
Protocol: Paclitaxel (LC laboratories) was dissolved in 100% ethonal. Equal volumes of paclitaxel solution and cremophor (Sigma-Aldrich, St. Louis, Mo.) were vigorously vortexed for 10 minutes. Ice cold saline (80% of the final volume) was added to freshly made paclitaxel/cremophor solution immediately before injection. 30 mg/kg body weight of paclitaxel in this solution was injected intravenously via tail vein at 3 times a week for 2 weeks.

WT mice = test: Sciatic nerve crush in WT mice with systemic BACE1 inhibitor infusion via Alzet pumps; type: in vivo, mouse
Source text: The inhibitors were systemically administered via subcutaneous catheters from Alzet pumps implanted in the interscapular space for 7 or 15 days.
Mice were deeply anesthetized with isoflurane and left sciatic nerves in the mid thigh or at the sciatic notch level were exposed and crushed by pulling tight a loop of 8-0 nylon black sutures for 30-40 seconds. The crush sites were marked with a 10-0 nylon black suture going through the epineurium only. For sciatic nerve transection, a small ˜2 mm piece of nerve was dissected out and the two nerve stumps were turned away from each other to prevent axonal regeneration to distal stumps. The distal stumps and contralateral nerves were collected 1-15 days post-transection.
Alzet pumps were filled, primed, and implanted as previously described in Farah, J. Neurosci. […] Neurol. […] The latter compound was synthesized by the NeuroTranslational team at the Brain Science Institute at Johns Hopkins University. Both inhibitors were dissolved in DMSO. According to the manufacturer's data, the pump continuously supplied 1-30 μg/hour of inhibitor for 7 days. To minimize the delay between implantation and the onset of release, the filled pumps were incubated in 1×PBS at 37° C. for 4 hours immediately before implantation. The mice were anesthetized by inhalation of isoflurane, and an incision, about 1.5 cm long, was made in the skin on top of the interscapular space. A filled Alzet pump was implanted subcutaneously into each mouse and incisions were closed with 9 mm stainless steel wound clips.
For fluorescent microscopy and immunostaining, mice were deeply anesthetized with 10% chloral hydrate and killed by transcardial perfusion with 1×PBS followed by 2% paraformaldehyde in […] phosphate buffer, pH 7.4, for 10-15 minutes. Tissues were then postfixed in the same fixative for 4-16 hr at 4° C. Sciatic nerves and gastrocnemius muscles were cryoprotected in 30% sucrose in 1×PBS overnight and quickly frozen in cold 2-methylbutane. Tissues were frozen sectioned on a cryostat at thickness of 10 or 20 μm for sciatic nerves and 50 μm for gastrocnemius muscles. In addition, the hind feet were decalcified, cryoprotected in 30% sucrose in 1×PBS, and sectioned at 50 μm thickness. Sciatic nerves were sectioned longitudinally using a Leica cryostat (model CM3050S, Leica Microsystems, Buffalo Grove, Ill.). Gastrocnemius muscles and foot were cross-sectioned by a freezing sliding microtome (Microm HM 450, Thermo Scientific, Waltham, Mass.).
To visualize YFP-positive degenerating and regenerating axons, animals were perfused as described above and sciatic nerves were collected. Whole-mounted sciatic nerves were imaged under a confocal microscope and Z-stack images were collected through the depth of the nerves.
For ultrastructural analyses, nerves were postfixed in OsO4 and embedded in Epon. Cross sections, at 1 μm thickness, were stained for toluidine blue and examined under light microscopy with 100× oil-immersion objective. 70 nm thin sections were obtained and stained for citrate/uranyl acetate. Electron micrographs were acquired using a Hitachi 7600 or Zeiss Libra transmission electron microscope.

WT DRG explants = test: Axonal outgrowth of dorsal root ganglia (DRG) explants; conditions: 50 nM, 4 days post culture
Protocol: Postnatal (P4-5) primary mouse DRG from WT littermate and BACE1 KO pups were established. Axonal outgrowth at 2 and 4 days post culture were measured.
Postnatal day 4-5 dorsal root ganglia (DRG) were dissected out of WT and BACE1 KO mice, and were maintained in neurobasal medium containing 2% B27 supplement and 50 ng/ml NGF (all reagents from Invitrogen, Carlsbad, Calif.). In some of the WT DRG explants, 50 nM-1 μM BACE1 inhibitor IV was added daily to the media. At least 8 explants were used for each condition. Axonal outgrowth of the DRG was monitored daily under phase-contrast microscopy, and images were acquired with Openlab software at 2 and 4 days post culture. The axon lengths were measured from the borders of the explants borders to the tips of axons using ImageJ (http://rsb.info.nih.gov/ij/).

CC(=O)O[C@H]1C(=O)[C@@]2(C)[C@H]([C@H](OC(=O)c3ccccc3)[C@]3(O)C[C@H](OC(=O)[C@H](O)[C@@H](NC(=O)c4ccccc4)c4ccccc4)C(C)=C1C3(C)C)[C@]1(OC(C)=O)CO[C@@H]1C[C@@H]2O [Paclitaxel, paclitaxel]
weight loss [1]: no significant weight loss

COc1ccc([C@]2(c3ccc(F)c(-c4cccnc4F)c3)N=C(N)N(C)C2=O)cc1C [WAY 258131]
β tubulin III staining of intra-plantar nerves of WT foot (WT mice; 2 weeks after sciatic nerve crush and treatment): β tubulin III positive fibers are regenerated axons

C[C@@H](NC(=O)c1cc(C(=O)N[C@@H](Cc2ccccc2)[C@H](O)CNC2CC2)cc(N(C)S(C)(=O)=O)c1)c1ccccc1 [BACE1 inhibitor IV]
YFP-positive axonal debris in whole-mounted YFP-WT nerve (WT mice; mouse, in vivo): more fragmented
post-phagocytic macrophages in electron micrograph of WT nerve (WT mice; mouse, in vivo): More post-phagocytic macrophages
regenerated YFP-positive axons in whole-mounted YFP-WT nerve (WT mice; mouse, in vivo): numerous regenerated YFP-positive axons
regenerated axons in electron micrograph of WT nerve (WT mice; mouse, in vivo): more regenerated axons
increase of axonal outgrowth of WT DRG explants (WT DRG explants): 98.0%

Source: patent US20130108645A1, “METHODS FOR ENHANCING AXONAL REGENERATION” (THE JOHNS HOPKINS UNIVERSITY, priority 2010, published 2013)
